System: aphids
Assay: Biological test on aphid (spray on cabbage leaf in Petri dishes)
Assay type: in vivo
Conditions: for Number of dead aphids 1st: 1st Petri dish; for Number of dead aphids 1st / Number of dead aphids 2nd / Number of dead aphids 3rd / Number of dead aphids 4th: 20 aphids on cabbage leaf, 9.6% w/w pesticide reagent diluted 1000 times with water, sprayed, examined after 24 hours; for Number of dead aphids 2nd: 2nd Petri dish; for Number of dead aphids 3rd: 3rd Petri dish; for Number of dead aphids 4th: 4th Petri dish; for Number of dead aphids average: average of four Petri dishes
Protocol: 9.6 g of the compound (based on the active ingredient) obtained from Example 1 was blended with 90.4 g of a solvent to form a 9.6% w/w pesticide reagent An 8 cm×8 cm piece of cabbage leaf was placed on a lump of wetted cotton in each one of four Petri dishes. 20 aphids were subsequently put on the cabbage leaf in each one of the Petri dishes. The thus formed pesticide reagent was diluted 1000 times with water to form a diluted solution which was then sprayed onto the cabbage leaf in each one of the Petri dishes in a predetermined amount. The number of dead aphids in each one of the Petri dishes was examined after 24 hours.
Example 13 was repeated, except that the compound employed in Example 13 was replaced by the compound obtained from a respective one of the Examples 2 to 12.
Example 13 was repeated, except that the compound employed in Example 13 was replaced by imidachloprid which is a heterocyclic compound of the formula disclosed in U.S. Pat. No. 4,742,060.
Table 2 lists the effectiveness of the pesticide reagents prepared in Examples 13 to 24 and the Comparative Example 1.

[1] = 20 aphids each, 9.6% w/w reagent diluted 1000 times, after 24 hours

Structure (SMILES)	Number of dead aphids 1st	Number of dead aphids 2nd	Number of dead aphids 3rd	Number of dead aphids 4th	Number of dead aphids average [1]	Effectiveness (higher value indicates greater effectivity, four Petri dishes, 20 aphids each, 9.6% w/w reagent diluted 1000 times, after 24 hours)
CS(=O)(=O)/N=C1\NCCN1Cc1ccc(Cl)nc1 [Example 15, 3-(2-chloro-5-pyridylmethyl)-2-[methylsulfonylimino] imidazolidine]	16	18	19	19	18	
Cc1ccc(S(=O)(=O)N=C2NCCN2Cc2ccc(Cl)nc2)cc1 [Example 13, 3-(2-chloro-5-pyridylmethyl)-2-[(4-methylphenyl)sulfonylimino]imidazolidine]	15	18	16	17	16.5	
CS(=O)(=O)N=C1NCCCN1Cc1ccc(Cl)nc1 [Example 16, 3-(2-chloro-5-pyridylmethyl)-2-[methylsulfonylimino]tetrahydropyrimidine]	17	17	19	19	18	
Cc1ccc(S(=O)(=O)N=C2OCCN2Cc2ccc(Cl)nc2)cc1 [Example 20, 3-(2-chloro-5-pyridylmethyl)-2-[(4-methylphenyl)sulfonylimino]oxazolidine]	17	16	18	15	16.5	
O=S(=O)(N=C1OCCN1Cc1ccc(Cl)nc1)c1ccc(Cl)cc1 [Example 24, 3-(2-chloro-5-pyridylmethyl)-2-[(4-chlorophenyl)sulfonylimino]oxazolidine]	15	18	19	19	17.75	
O=S(=O)(N=C1NCCN1Cc1ccc(Cl)nc1)c1ccc(Cl)cc1 [Example 17, 3-(2-chloro-5-pyridylmethyl)-2-[(4-chlorophenyl)sulfonylimino]imidazolidine]	20	18	19	20	19.25	
O=S(=O)(N=C1NCCCN1Cc1ccc(Cl)nc1)c1ccc(Cl)cc1 [Example 18, 3-(2-chloro-5-pyridylmethyl)-2-[(4-chlorophenyl)sulfonylimino]tetrahydropyrimidine]	19	19	19	17	18.5	
CS(=O)(=O)/N=C1\SCCN1Cc1ccc(Cl)nc1 [Example 21, 3-(2-chloro-5-pyridylmethyl)-2-[methylsulfonylimino]thiazolidine]	16	18	19	18	17.75	
Cc1ccc(S(=O)(=O)N=C2SCCN2Cc2ccc(Cl)nc2)cc1 [Example 19, 3-(2-chloro-5-pyridylmethyl)-2-[(4-methylphenyl)sulfonylimino]thiazolidine]	17	16	18	17	17	
CS(=O)(=O)/N=C1\OCCN1Cc1ccc(Cl)nc1 [Example 22, 3-(2-chloro-5-pyridylmethyl)-2-[methylsulfonylimino]oxazolidine]	18	16	19	17	17.5	
O=S(=O)(N=C1SCCN1Cc1ccc(Cl)nc1)c1ccc(Cl)cc1 [Example 23, 3-(2-chloro-5-pyridylmethyl)-2-[(4-chlorophenyl)sulfonylimino]thiazolidine]	18	18	16	18	17.5	
Cc1ccc(S(=O)(=O)N=C2NCCCN2Cc2ccc(Cl)nc2)cc1 [Example 14, 3-(2-chloro-5-pyridylmethyl)-2-[(4-methylphenyl)sulfonylimino]tetrahydropyrimidine]	16	17	17	16	16.5	
O=[N+]([O-])/N=C1\NCCN1Cc1ccc(Cl)nc1 [Comparative Example 1, imidachloprid, reference compound]	18	17	18	16	17.25	86.08
